Target: T1, recombinant IL-8 Rβ, or Type II, receptor (Homo sapiens, UniProt P25025)
T1 sequence (P25025 1-360): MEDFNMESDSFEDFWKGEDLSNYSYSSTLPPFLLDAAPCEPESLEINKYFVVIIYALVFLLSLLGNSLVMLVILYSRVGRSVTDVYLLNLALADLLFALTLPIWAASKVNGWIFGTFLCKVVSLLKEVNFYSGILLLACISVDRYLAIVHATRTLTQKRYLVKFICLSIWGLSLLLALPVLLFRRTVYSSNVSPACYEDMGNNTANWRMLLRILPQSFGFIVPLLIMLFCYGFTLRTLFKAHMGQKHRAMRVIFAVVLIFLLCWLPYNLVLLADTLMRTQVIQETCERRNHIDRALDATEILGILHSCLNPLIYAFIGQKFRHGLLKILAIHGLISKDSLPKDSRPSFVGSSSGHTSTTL
Experiment: Receptor binding assay, 125I IL-8, IL-8Rβ CHO membranes (permissive model)
Description: [^125 I] IL-8 (human recombinant) was obtained from Amersham Corp., Arlington Heights, Ill., with specific activity 2000 Ci/mmol. Gro-α was obtained from NEN-New England Nuclear. All other chemicals were of analytical grade. High levels of recombinant human IL-8 type α and β receptors were individually expressed in Chinese hamster ovary cells as described previously (Holmes, et al., Science, 1991, 253, 1278). The Chinese hamster ovary membranes were homogenized according to a previously described protocol (Haour, et al., J Biol Chem., 249 pp 2195-2205 (1974)). Except that the homogenization buffer was changed to 10 mM Tris-HCL, 1 mM MgS04, 0.5 mM EDTA (ethylene-diaminetetra-acetic acid), 1 mMPMSF (α-toluenesulphonyl fluoride), 0.5 mg/L Leupeptin, pH 7.5. Membrane protein concentration was determined using Pierce Co. micro-assay kit using bovine serum albumin as a standard. All assays were performed in a 96-well micro plate format. Each reaction mixture contained ^125 I IL-8 (0.25 nM) or ^125 I Gro-α and 0.5 μg/mL of IL-8Rα or 1.0 μg/mL or IL-8Rβ membranes in 20 mM Bis-Trispropane and 0.4 mM Tris HCl buffers, pH 8.0, containing 1.2 mM MgSO4, 0.1 mM EDTA, 25 mM NaCl and 0.03% CHAPS. […] The filter was then dried and counted on the Betaplate liquid scintillation counter. […]

`Cc1cc(Cl)ccc1NC(=O)Nc1ccccc1C(=O)O` [1-(2-Carboxyphenyl)-3-(4-chloro-2-methylphenyl)urea] was tested, and the “found to be active at (IL-8 receptor inhibition)” value was “about 75 μg/mL”.

— US6005008A, “IL-8 receptor antagonists” (SmithKline Beecham Corporation, priority 1997, dated 1999)
